According to patent US20110206607A1, “IMIDAZOL (1,2-A)PYRIDINES AND RELATED COMPOUNDS WITH ACTIVITY AT CANNABINOID CB2 RECEPTORS” (priority 2007, published 2011):

Target: T1, human CB2 (Homo sapiens, UniProt P34972)
T1 construct: expressed in transfected cells; host or cells: HEK-293T (transient transfection, membrane preparation)
Assay: CB2 receptor binding assay, block of [3H]-CP 55,940 binding
Conditions: membranes of HEK-293T cells transfected with human CB2 cDNA; 1.5 nM [3H]-CP 55,940
Experimental: Membrane preparation—HEK-293T cells were cultured according to ATCC (Manassas, Va.) guidelines and transfected with human CB2 cDNA (SEQ ID NO:1) (Genbank X74328), operably linked to the SV40 promoter, using Polyfect (Qiagen, Valencia, Calif.) or Fugene (Roche, Nutley, N.J.) according to manufacturer's instructions. 48 h after transfection cells were harvested in ice cold membrane buffer (20 mM HEPES, 6 mM MgCl2, 1 mM EDTA, pH 7.2) using a cell scraper. Cells were transferred to a nitrogen cavitation chamber and a pressure of […] was applied for 30 min. The pressure was released and the cell debris was collected and centrifuged at 1000 g at 4° C. for 10 min. The supernatant was collected and the spin was repeated until the supernatant was free of precipitate. Membranes were then pelleted by centrifugation at 12.000 g at 4° C. for 20 min. Membranes were resuspended in an appropriate amount of membrane buffer. The membrane concentration was determined using a BioRad (Hercules, Calif.) protein assay dye reagent according to manufacturer's instructions. Membranes were diluted to 1 mg/ml and aliquots snap-frozen in liquid nitrogen and store at −80° C.
Binding assay—0.5-10 ng of membranes were incubated in binding buffer (50 mM Tris, 0.5 mM EDTA, 0.1% BSA, pH 7.4) in the presence of 1.5 nM radioligand ([^3H]-CP 55,940 Perkin Elmer) and varying concentrations of ligands (total volume 100 μL in a 96 well plate). Membranes were filtered onto a 96 well GF/B filterplate (Packard Bioscience, Shelton, Conn.) and washed with […] wash buffer (25 mM HEPES, 1 mM CaCl2, 5 mM MgCl2, 0.25M NaCl) using a Filtermate 196 Harvester (Packard Instruments, Downers Grove, Ill.). The filter plates were dried under a heat lamp before addition of 50 μL of scintillation fluid to each well (Microscint 20, Packard, Shelton, Conn.). Plates were counted on a Topcount NXT (Packard, Shelton, Conn.).
Data Analysis—Graphs were plotted and KD values were determined by nonlinear regression analysis using Prism software (GraphPad version 4.0, San Diego, Calif., USA).

T1 sequence (P34972 whole entry): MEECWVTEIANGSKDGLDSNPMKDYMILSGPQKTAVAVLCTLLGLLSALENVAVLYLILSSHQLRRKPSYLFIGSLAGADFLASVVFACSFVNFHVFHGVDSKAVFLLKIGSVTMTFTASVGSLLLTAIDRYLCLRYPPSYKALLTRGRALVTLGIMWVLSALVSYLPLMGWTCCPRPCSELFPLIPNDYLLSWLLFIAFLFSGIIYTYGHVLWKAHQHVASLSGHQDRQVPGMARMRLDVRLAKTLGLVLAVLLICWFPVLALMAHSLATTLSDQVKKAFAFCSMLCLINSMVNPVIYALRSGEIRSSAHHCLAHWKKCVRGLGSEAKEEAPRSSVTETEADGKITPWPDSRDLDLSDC

Structure (SMILES): COc1cccc(OC)c1-c1nc2ccccn2c1Nc1ccc2c(c1)OCCO2 [CR-116]
- pKi: 6.2

Structure (SMILES): COc1cc(-c2nc3ccccn3c2Nc2ccc3c(c2)OCCO3)cc(F)c1O [CR-93]
- pKi: 5.7

Structure (SMILES): Oc1cc(F)c(-c2nc3cccc(OCCF)n3c2Nc2ccc3c(c2)OCCO3)c(F)c1 [CR-6]
- pKi: 7.6

Structure (SMILES): Cc1cc(O)cc(C)c1-c1nc2ccc(F)cn2c1Nc1ccc2c(c1)OCCO2 [CR-33]
- pKi: 7.8

Structure (SMILES): Fc1cccc(F)c1-c1nc2ccccn2c1Nc1ccc2c(c1)OCCO2 [CR-56]
- pKi: 7.3

Structure (SMILES): COc1cccc2nc(-c3c(F)cccc3Cl)c(NC(=O)c3ccc4c(c3)OCCO4)n12 [CR-117]
- pKi: 5.7

Structure (SMILES): COc1cc(-c2nc3ccc(C)cn3c2Nc2ccc3c(c2)OCCO3)ccc1O [CR-81]
- pKi: 6.7

Structure (SMILES): Fc1cccc(Cl)c1-c1nc2ccccn2c1Nc1ccc2c(c1)OCO2 [CR-128]
- pKi: 6.7

Structure (SMILES): COc1cccc2nc(-c3c(Cl)cccc3Cl)c(Nc3ccc4c(c3)OCCO4)n12 [CR-18]
- pKi: 8.4

Structure (SMILES): COc1cc(-c2nc3cccc(C)n3c2Nc2ccc3c(c2)OCCO3)cc(F)c1O [CR-95]
- pKi: 6.6

Structure (SMILES): COc1cccc(F)c1-c1nc2cnccn2c1Nc1ccc2c(c1)OCCO2 [CR-125]
- pKi: 5.9

Structure (SMILES): COc1cccc(OC)c1-c1nc2c(C)cccn2c1Nc1ccc2c(c1)OCCO2 [CR-123]
- pKi: 6.0

Structure (SMILES): COc1ccnc2nc(-c3c(C)cc(O)cc3C)c(Nc3ccc4c(c3)OCCO4)n12 [CR-108]
- pKi: 6.3

Structure (SMILES): COc1cc(O)ccc1-c1nc2ncccn2c1Nc1ccc2c(c1)OCCO2 [CR-111]
- pKi: 6.3

Structure (SMILES): COc1cccc2nc(-c3c(F)cc(O)cc3Cl)c(Nc3ccc4c(c3)OCCO4)n12 [CR-138]
- pKi: 8.3

Structure (SMILES): COc1cc(-c2nc3ccc(C)cn3c2Nc2ccc3c(c2)OCCO3)cc(F)c1O [CR-96]
- pKi: 6.5

Structure (SMILES): COc1cc(-c2nc3cccc(C)n3c2Nc2ccc3c(c2)OCCO3)ccc1OCCF [CR-88]
- pKi: 6.6

Structure (SMILES): Cc1cc(OCCF)cc(C)c1-c1nc2cccc(F)n2c1Nc1ccc2c(c1)OCCO2 [CR-36]
- pKi: 7.7

Structure (SMILES): COc1cccc2nc(-c3c(Cl)cncc3Cl)c(Nc3ccc4c(c3)OCCO4)n12 [CR-20]
- pKi: 8.4

Structure (SMILES): C=COc1ccc2nc(-c3c(F)cccc3Cl)c(Nc3ccc4c(c3)OCCO4)n2c1 [CR-30]
- pKi: 7.8

Structure (SMILES): COc1cccc(OC)c1-c1nc2cccc(C)n2c1Nc1ccc2c(c1)OCCO2 [CR-114]
- pKi: 6.3

Structure (SMILES): COc1cccc2nc(-c3c(F)ccc(O)c3F)c(Nc3ccc4c(c3)OCCO4)n12 [CR-4]
- pKi: 8.5

Structure (SMILES): COc1cccc2nc(-c3c(Cl)ncnc3Cl)c(Nc3ccc4c(c3)OCCO4)n12 [CR-22]
- pKi: 8.2

Structure (SMILES): Cc1ccn2c(Nc3ccc4c(c3)OCCO4)c(-c3cccc(F)n3)nc2c1 [CR-99]
- pKi: 6.5

Structure (SMILES): Clc1cncc(Cl)c1-c1nc2ccccn2c1Nc1ccc2c(c1)OCCO2 [CR-64]
- pKi: 7.0
